Results on 25 molecules are retold here after patent publication US10385080B2, “STAT6 inhibitors” (Board of Regents, The University of Texas System, priority 2013, dated 2019).

A word on the IC50: it is the concentration needed to halve the response being measured. A lower IC50 goes with higher potency.

In series [1] the target is T1, STAT6 (Homo sapiens, UniProt P42226).
T1 sequence (P42226 1-847): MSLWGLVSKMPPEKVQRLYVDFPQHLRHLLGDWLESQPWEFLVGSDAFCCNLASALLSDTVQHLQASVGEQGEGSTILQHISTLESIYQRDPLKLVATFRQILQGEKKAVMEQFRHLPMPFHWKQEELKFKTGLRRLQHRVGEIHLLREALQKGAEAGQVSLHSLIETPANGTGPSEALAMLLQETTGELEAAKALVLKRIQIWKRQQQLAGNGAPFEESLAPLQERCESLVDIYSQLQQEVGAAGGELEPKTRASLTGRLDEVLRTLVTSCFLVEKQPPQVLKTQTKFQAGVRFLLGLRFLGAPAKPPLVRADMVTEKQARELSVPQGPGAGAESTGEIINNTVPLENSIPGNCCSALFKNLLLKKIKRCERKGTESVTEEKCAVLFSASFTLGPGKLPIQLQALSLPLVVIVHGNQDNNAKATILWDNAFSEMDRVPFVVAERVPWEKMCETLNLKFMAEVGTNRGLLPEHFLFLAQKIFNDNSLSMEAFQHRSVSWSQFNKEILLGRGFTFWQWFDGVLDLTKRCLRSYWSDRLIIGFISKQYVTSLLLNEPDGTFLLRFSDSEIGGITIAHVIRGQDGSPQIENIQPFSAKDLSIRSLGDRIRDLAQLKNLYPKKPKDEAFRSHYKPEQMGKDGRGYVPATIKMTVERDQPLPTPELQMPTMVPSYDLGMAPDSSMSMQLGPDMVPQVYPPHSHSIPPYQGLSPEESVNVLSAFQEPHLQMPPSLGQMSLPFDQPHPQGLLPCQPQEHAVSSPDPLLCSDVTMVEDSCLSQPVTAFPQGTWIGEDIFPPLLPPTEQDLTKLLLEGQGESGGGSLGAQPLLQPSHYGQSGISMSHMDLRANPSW
Description: Fluorescence polarization competition with FAM-labelled IL-4Rα Tyr631 phosphopeptide for binding to STAT6. Particulars: competition with FAM-Ala-pTyr-Lys-Pro-Phe-Gln-Asp-Leu-Ile-NH2. The source says: The following structures as phosphate esters were synthesized and assayed them for the ability to compete with FAM-Ala-pTyr-Lys-Pro-Phe-Gln-Asp-Leu-Ile-NH2, derived from Tyr631 of IL-4Rα, for binding to STAT6 using fluorescence polarization (FAM=5-carboxyfluorescein). The fluorescence polarization methodology was adapted from Wu et al., 1997, which is incorporated herein by reference. Amide bond replacements, cyclic amides, and cyclic lactams in the central part of the compound were explored.
(In general: Fluorescence polarisation rises when a labelled molecule tumbles more slowly, as on binding a larger partner.)

Series [2] relates to Stat5. Kind of series: Selectivity: Stat5 phosphorylation in EGF-stimulated MDA-MB-468 cells. The format is cell-based. Particulars: serum starved MDA-MB-468 cells, 2 hr. As to the method: (§1) Compounds were screened at 5 μM for their ability to inhibit IL-4 stimulated phosphorylation of STAT6 in Beas-2B immortalized human airway cells. Cells were treated with prodrug for 2 hr and then stimulated with IL-4. After 30 min cells were lysed and pSTAT6 and total STAT6 were measured with western blots (FIG. 7). Without being bound by theory, the inhibition observed is consistent with compounds entering cells, being stripped of the POM groups, binding to the SH2 domain of STAT6, blocking binding to IL-4Rα and preventing phosphorylation of Tyr641. […] Compounds resulting in <10% residual phosphorylation were taken on to MTS cytotoxicity assays and dose response assays. (FIG. 8). The cyclic aromatic amides PM-63I, PM-80I, PM-81I, and PM-86I were very potent with IC50 values from 50-500 nM. […] With the exception of PM-43I, concentrations that inhibit STAT6 phosphorylation are 20-100 fold lower than those resulting in toxicity. STAT6 inhibitors were assayed for their ability to inhibit the phosphorylation of STAT 1, STAT 3, STAT 5, Akt, and FAK, all processes that depend on SH2 domain-phosphotyrosine interactions (Mandal, P. K. et al. 2011). Serum starved MDA-MB-468 breast cancer cells were treated with STAT6 inhibitors for 2 hr and then were stimulated with EGF (See FIGS. 9A and 9B).

In series [3] the target is T1, STAT6. Kind of series: Inhibition of IL-4 (and IL-13) stimulated phosphorylation of STAT6 in Beas-2B cells, western blot. The format is cell-based. More on the design: endogenous in cells; host or cells: Beas-2B immortalized human airway cells. The note with it: dose response. As to the method: Compound PM-241H inhibited the phosphorylation of Tyr641 of STAT6 in Beas-2B cells stimulated with IL-4 and IL-13.
as §1
Cells or lungs were isolated and lysed in RIPA buffer (9806S; Cell Signaling, Danvers, Mass.), protein was quantified using BCA Protein Assay Reagent (23227; Thermo Fisher Scientific, Rockford, Ill.) and denatured in Laemmli sample buffer (161-0737; Bio-Rad, Hercules, Calif.) according to manufacturer's protocol. Proteins were separated on SDS-Page gels were hand-poured using a standard electrophoresis unit (Bio-Rad, Hecules, Calif.) and transferred to a membrane using iBlot Gel Transfer Device (IB 1001; Invitrogen, Grand Island, N.Y.). Membranes were blocked in 2% FBS PBST and probed for c-Src, p-c-Src, pErk1/2, Erk1/2, p STAT6, STAT6, pSTAT3, STAT3, pSTAT5, STAT5, Shp-1, and β-actin. Signal was detected with a ChemiDoc XRS+ system (BioRad; Hercules, Calif.).
(In general: Immunoblotting shows a protein as a band on a membrane.)

The subject of series [4] is asthma-related parameters. Kind of series: Dose effect on asthma-related parameters in fungus-challenged mice. The format is in vivo. As to the method:
(§2) The issue of toxicity was addressed with the newer synthetic STAT6 peptidomimetic agents 86i and 43i in two ways. First, the inventors determined the effect of each inhibitor on asthma-related parameters in fungus-challenged mice. […] Second, the weights of mice were measured during challenge with the different doses of both STAT6 inhibitors.
Mice were challenged intranasally with a clinical isolate of 4×10^5 A. niger conidia every two days for a total of 8 challenges and treated with 50 μg of the indicated β-agonist, liposome vehicle (DLPC) and/or PM-242H (5 or 50 μg) intranasally as indicated and the allergic airway disease phenotype was determined according to previously described methods (Porter, P. et al. 2009).
Allergic airway disease was assessed as previously described (Porter, P. et al. 2009). Changes in respiratory system resistance (RRS) in response to intravenous acetylcholine challenge, bronchoalveolar lavage (BAL) fluid differential counts, and analysis of lung IL-4, IL-17A and IFN-γ producing cells by enzyme linked immunocell spot assay (ELISpot) were performed as previously described (Lee, S. H. et al. 2003; Polikepahad, S. et al. 2010).

Series [5] in a line: Toxicity: weights of mice during challenge with different doses. The format is in vivo. The note with it: different doses. Here is the method: as §2
Setting [6] is: select phosphate-containing STAT6 inhibitors.
[7] abbreviates: other phosphate-containing STAT6 inhibitors.

Turning to `C/C(=C\C(=O)N[C@H](C(=O)N1CCC[C@H]1/C=C/CCc1ccccc1)C(C)(C)C)c1ccc(OP(=O)(O)O)cc1` [PM-9I], the IC50 in series [1] (setting [6]) is 771 ± 290 nM. Same read-out and setting: the figure for `C/C(=C\C(=O)N[C@H](C(=O)N1CCC[C@H]1CCCCc1ccccc1)C(C)(C)C)c1ccc(OP(=O)(O)O)cc1` [PM-10I] is 2090 ± 930 nM. For the molecule `C/C(=C\C(=O)N[C@H](C(=O)N[C@@H](C)C(=O)N(C)c1ccccc1)C(C)(C)C)c1ccc(OP(=O)(O)O)cc1` [PM-26I], the concentration for half-maximal inhibition (IC50) in series [1] (setting [7]) was 120 ± 16 nM. In turn, `C/C(=C\C(=O)N[C@H]1CCCCN(CC(=O)N(C)c2ccccc2)C1=O)c1ccc(OP(=O)(O)O)cc1` [PM-28I] yielded an IC50 in series [1] (setting [6]) of 630 ± 13 nM.

For `C/C(=C\C(=O)NC1CCc2cccc3c2N(C1=O)[C@H](C(=O)N(C)c1ccccc1)C3)c1ccc(OP(=O)(O)O)cc1` (some centres unmarked) [PM-34I], the IC50 in series [1] (setting [6]) amounted to 280 ± 60 nM. The same measure, in the same setting: the figure for `C/C(=C\C(=O)N[C@H](C(=O)N1CCC[C@H]1C(=O)N1CCc2ccccc21)C(C)(C)C)c1ccc(OP(=O)(O)O)cc1` [PM-59I] is 260 ± 90 nM.

For the molecule `C/C(=C\C(=O)N[C@H](C(=O)NC1CCCCN(c2ccccc2)C1=O)C(C)(C)C)c1ccc(OP(=O)(O)O)cc1` (some centres unmarked) [PM-60I], the IC50 in series [1] (setting [6]) stood at 2330 ± 500 nM.

With `C/C(=C\C(=O)N[C@H](C(=O)N1CCC[C@H]1C(=O)N1CCc2ccccc21)C(C)(C)C)c1ccc(C(F)(F)P(=O)(OCOC(=O)C(C)(C)C)OCOC(=O)C(C)(C)C)cc1` [PM-63I], in series [2], the “cross reactivity with Stat5” value was “significant cross reactivity”. In addition, the IC50 in series [3] fell in the range of 50 to 500 nM. Turning to `C/C(=C\C(=O)N[C@H](C(=O)N1CCC[C@H]1C(=O)N1CCCCC1)C(C)(C)C)c1ccc(OP(=O)(O)O)cc1` [PM-67I-A], in series [1] (setting [6]), the 50% inhibitory concentration (IC50) is 370 ± 90 nM. As to `C/C(=C\C(=O)N[C@H](C(=O)N1CCC[C@H]1C(=O)N1CCOCC1)C(C)(C)C)c1ccc(OP(=O)(O)O)cc1` [PM-67I-B], the IC50 in series [1] (setting [6]) was 103 ± 50 nM.

`C/C(=C\C(=O)N[C@H](C(=O)N1CCC[C@H]1C(=O)N1CCN(C)CC1)C(C)(C)C)c1ccc(OP(=O)(O)O)cc1` [PM-67I-C] yielded an IC50 in series [1] (setting [6]) of 1900 ± 840 nM.

Regarding `C/C(=C\C(=O)N[C@H](C(=O)N1CCC[C@H]1C(=O)N(C)C1CCCCC1)C(C)(C)C)c1ccc(OP(=O)(O)O)cc1` [PM-70I], the IC50 in series [1] (setting [7]) is 230 ± 140 nM. `C/C(=C\C(=O)N[C@H](C(=O)N1CCC[C@H]1C(=O)N1CCc2ccccc2C1)C(C)(C)C)c1ccc(OP(=O)(O)O)cc1` [PM-71-A] registered an IC50 in series [1] (setting [6]) of 50 ± 40 nM. Consider `C/C(=C\C(=O)N[C@H](C(=O)N1CCC[C@H]1C(=O)N1CCCCC1)C(C)(C)C)c1ccc(C(F)(F)P(=O)(OCOC(=O)C(C)(C)C)OCOC(=O)C(C)(C)C)cc1` [PM-74I], for which inhibition in series [3] was half-maximal at 50 nM (IC50). In turn, `C/C(=C\C(=O)N[C@H](C(=O)N1CCC[C@H]1C(=O)N1CCCCc2ccccc21)C(C)(C)C)c1ccc(C(F)(F)P(=O)(OCOC(=O)C(C)(C)C)OCOC(=O)C(C)(C)C)cc1` [PM-80I] gave an IC50 in series [3] of 50 to 500 nM.

In turn, `C/C(=C\C(=O)N[C@H](C(=O)N1CCC[C@H]1C(=O)N1CCc2ccccc2C1)C(C)(C)C)c1ccc(C(F)(F)P(=O)(OCOC(=O)C(C)(C)C)OCOC(=O)C(C)(C)C)cc1` [PM-81I] showed an IC50 in series [3] of 50 to 500 nM. `C/C(=C\C(=O)N[C@H](C(=O)N1CCC[C@H]1C(=O)N1CCCc2ccccc21)C(C)(C)C)c1ccc(C(F)(F)P(=O)(OCOC(=O)C(C)(C)C)OCOC(=O)C(C)(C)C)cc1` [PM-86I]: in series [4] (dose of 5 micrograms), the “inhibition of airway hyperresponsiveness” value was “intermediately effective”, the “inhibition of airway inflammation” value was “maximally effective” and the “inhibition of lung IL-4 responses” value is reported as “maximally effective”. Further, the “inhibition of airway hyperresponsiveness” value in series [4] (dose of 50 micrograms) was “maximally effective”. The “lung inflammation and IL-4 responses” value in series [4] (dose of 50 micrograms, to sham-treated levels) was “rebound”. Further, the “toxicity by weight gain over the period of drug administration” value in series [5] is listed as “no toxicity”. This molecule displayed an IC50 in series [3] of 50 to 500 nM. In series [1] (setting [6]), `C/C(=C\C(=O)N[C@H](C(=O)N1CCC[C@H]1C(=O)N1CCCc2ccccc21)C(C)(C)C)c1ccc(OP(=O)(O)O)cc1` [PM-87I] yielded an IC50 of 240 ± 130 nM. In the case of `C/C(=C\C(=O)N[C@H](C(=O)N1CCC[C@H]1C(=O)N(c1ccccc1)c1ccc(I)cc1)C(C)(C)C)c1ccc(OP(=O)(O)O)cc1` [PM-286H], the IC50 in series [1] (setting [7]) came out at 53 ± 10 nM.

`CC(C)(C)[C@H](NC(=O)/C=C/c1ccc(OP(=O)(O)O)cc1)C(=O)N1CCC[C@H]1C(=O)N(c1ccccc1)c1ccc(I)cc1` [PM-287H]: the concentration for half-maximal inhibition (IC50) in series [1] (setting [7]) was 73 ± 10 nM. The same measure, in the same setting: the figure for `CC(C)(C)[C@H](NC(=O)/C=C/c1ccc(OP(=O)(O)O)cc1)C(=O)N1CCC[C@H]1C(=O)N(c1ccccc1)c1ccccc1` [PM-300H-A] is 120 ± 40 nM; for `C/C(=C\C(=O)N[C@H](C(=O)N1CCC[C@H]1C(=O)N(c1ccccc1)c1ccccc1)C(C)(C)C)c1ccc(OP(=O)(O)O)cc1` [PM-300H-B] it is 89 ± 10 nM.

Molecule `C/C(=C\C(=O)N[C@H](C(=O)N1CCC[C@H]1C(=O)N(C)c1ccccc1)C(C)(C)C)c1ccc(OP(=O)(O)O)cc1` [PM-301H] displayed an IC50 in series [1] (setting [7]) of 117 ± 30 nM. The same measure, in the same setting: the figure for `C/C(=C\C(=O)N[C@H](C(=O)N1CCC[C@H]1C(=O)Nc1ccccc1)C(C)(C)C)c1ccc(OP(=O)(O)O)cc1` [PM-302H-A] is 268 ± 70 nM; for `CCN(CC)C(=O)[C@@H]1CCCN1C(=O)[C@@H](NC(=O)/C=C(\C)c1ccc(OP(=O)(O)O)cc1)C(C)(C)C` [PM-302H-B] it is 377 ± 90 nM.
